Test results published in patent publication US20250100968A1, “BICYCLIC-HETEROCYCLE DERIVATIVES AND RELATED USES” (CENTESSA PHARMACEUTICALS (UK) LIMITED, priority 2022, published 2025).

Molecular target: T1, human orexin type 2 receptor (hOX2R) (Homo sapiens, UniProt O43614)
T1 sequence (O43614 1-444): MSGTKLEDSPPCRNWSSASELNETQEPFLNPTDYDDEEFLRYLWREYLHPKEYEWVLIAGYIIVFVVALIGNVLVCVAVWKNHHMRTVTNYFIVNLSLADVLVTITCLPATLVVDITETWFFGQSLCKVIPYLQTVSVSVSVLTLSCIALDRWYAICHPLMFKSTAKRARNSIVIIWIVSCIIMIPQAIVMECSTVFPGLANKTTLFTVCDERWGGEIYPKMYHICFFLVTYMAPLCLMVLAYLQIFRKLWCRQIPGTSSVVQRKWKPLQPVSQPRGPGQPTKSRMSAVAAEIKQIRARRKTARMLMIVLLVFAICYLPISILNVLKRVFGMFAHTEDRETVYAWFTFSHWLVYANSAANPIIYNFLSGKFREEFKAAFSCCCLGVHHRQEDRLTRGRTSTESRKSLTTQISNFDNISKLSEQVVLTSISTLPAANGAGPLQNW
Experiment: cell-based
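Note: agonist activity in CHO cells stably expressing hOX2R, intracellular Ca2+ via Calcium 5 dye fluorescence area over 2 min, buffer-only as 0% and 10 nM orexin A as 100%.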
Experimental: Measurement of orexin type 2 receptor agonist activity. […] After removal of the medium, 50 μl of assay buffer 1 (0.1% bovine serum albumin (Sigma Aldrich), 20 mM HEPES (Molecular Dimensions), 250 mM probenecid (Sigma Aldrich), 1× Calcium 5 dye (Molecular Devices) in Hank's balanced salt solution (Invitrogen)) was added, and the cells were incubated for 60 min under the conditions of 37° C., 5% CO2. A test compound was dissolved in dimethyl sulfoxide (Sigma Aldrich) to 10 mM, and then diluted with assay buffer 2 (20 mM HEPES, Hank's balanced salt solution, 0.1% bovine serum albumin). For the reaction, a test compound solution (10 μl) was added using Fluorescent Imaging Plate Reader TETRA (FLIPR TETRA: manufactured by Molecular Devices), a fluorescence value (excitation wavelength 488 nm, measurement wavelength 570 nm) of each well was measured every one second for 2 min, and the agonist activity was determined using the area of the fluorescence value as an indicator of intracellular Ca^2+ concentration. The agonist activity of the test compound was calculated assuming that the fluorescence value of the well added with only the dilution buffer was 0% and the fluorescence value of the well added with 10 nM human orexin A (Tocris) buffer was 100%.

Row | Structure (SMILES) | EC50
1 | CC(F)(F)CNC(=O)N1CC2(CC2)[C@H](NS(=O)(=O)C(F)F)[C@@H]1Cc1cccc(-c2cc(F)cc(F)c2)c1F [compound 39, (6S,7S)-7-((difluoromethyl)sulfonamido)-N-(2,2-difluoropropyl)-6-((2,3′,5′-trifluoro-[1,1′-biphenyl]-3-yl)methyl)-5-azaspiro[2.4]heptane-5-carboxamide] | 1 to 10 nM
2 | C[C@@H](NC(=O)N1CC2(CC2)[C@H](NS(=O)(=O)CF)[C@@H]1Cc1cccc(-c2cc(F)cc(F)c2)c1F)C(F)F [compound 4, (6S,7S)-N-((R)-1,1-difluoropropan-2-yl)-7-((fluoromethyl)sulfonamido)-6-((2,3′,5′-trifluoro-[1,1′-biphenyl]-3-yl)methyl)-5-azaspiro[2.4]heptane-5-carboxamide] | 1 to 10 nM
3 | C[C@@](O)(C(=O)N1CC2(CC2)[C@H](NS(=O)(=O)C(F)F)[C@@H]1Cc1cccc(-c2ccccc2)c1F)C1CC1 [compound 75, N-((6S,7S)-5-((S)-2-cyclopropyl-2-hydroxypropanoyl)-6-((2-fluoro-[1,1′-biphenyl]-3-yl)methyl)-5-azaspiro[2.4]heptan-7-yl)-1,1-difluoromethanesulfonamide] | 1 to 10 nM
4 | N#C[C@]1(C(=O)N2CC3(CC3)[C@H](NS(=O)(=O)C(F)F)[C@@H]2Cc2cccc(-c3cccc(F)c3)c2F)CCO1 [compound 53, N-((6S,7S)-5-((S)-2-cyanooxetane-2-carbonyl)-6-((2,3′-difluoro-[1,1′-biphenyl]-3-yl)methyl)-5-azaspiro[2.4]heptan-7-yl)-1,1-difluoromethanesulfonamide] | 1 to 10 nM
5 | COCC1(C(=O)N2CC3(CC3)[C@H](NS(C)(=O)=O)[C@@H]2Cc2cccc(-c3ccccc3)c2F)CC1 [compound 26, N-((6S,7S)-6-((2-fluoro-[1,1′-biphenyl]-3-yl)methyl)-5-(1-(methoxymethyl)cyclopropane-1-carbonyl)-5-azaspiro[2.4]heptan-7-yl)methanesulfonamide] | 0.0631 to 1 nM
6 | O=C([C@H]1CCO1)N1CC2(CC2)[C@H](NS(=O)(=O)C2(F)CC2)[C@@H]1Cc1cc(F)cc(-c2ccccc2)c1F [compound 87, N-((6S,7S)-6-((2,5-difluoro-[1,1′-biphenyl]-3-yl)methyl)-5-((R)-oxetane-2-carbonyl)-5-azaspiro[2.4]heptan-7-yl)-1-fluorocyclopropane-1-sulfonamide] | 1 to 10 nM
7 | C[C@@](O)(CF)C(=O)N1CC2(CC2)[C@H](NS(=O)(=O)CF)[C@@H]1Cc1cccc(-c2cc(F)cc(F)c2)c1F [compound 83, 1-fluoro-N-((6S,7S)-5-((S)-3-fluoro-2-hydroxy-2-methylpropanoyl)-6-((2,3′,5′-trifluoro-[1,1′-biphenyl]-3-yl)methyl)-5-azaspiro[2.4]heptan-7-yl)methanesulfonamide] | 1 to 10 nM
8 | N#C[C@]1(C(=O)N2CC3(CC3)[C@H](NS(=O)(=O)C(F)F)[C@@H]2Cc2cccc(-c3cc(F)cc(F)c3)c2F)CCO1 [compound 48, N-((6S,7S)-5-((S)-2-cyanooxetane-2-carbonyl)-6-((2,3′,5′-trifluoro-[1,1′-biphenyl]-3-yl)methyl)-5-azaspiro[2.4]heptan-7-yl)-1,1-difluoromethanesulfonamide] | 0.0631 to 1 nM
9 | C[C@@](O)(CF)C(=O)N1CC2(CC2)[C@H](NS(=O)(=O)CF)[C@@H]1Cc1cc(F)cc(-c2ccccc2)c1F [compound 72, N-((6S,7S)-6-((2,5-difluoro-[1,1′-biphenyl]-3-yl)methyl)-5-((S)-3-fluoro-2-hydroxy-2-methylpropanoyl)-5-azaspiro[2.4]heptan-7-yl)-1-fluoromethanesulfonamide] | 0.0631 to 1 nM
10 | COC1CN(C(=O)N2CC3(CC3)[C@H](NS(=O)(=O)C(F)F)[C@@H]2Cc2cccc(-c3cc(F)cc(F)c3)c2F)C1 [compound 52, 1,1-difluoro-N-((6S,7S)-5-(3-methoxyazetidine-1-carbonyl)-6-((2,3′,5′-trifluoro-[1,1′-biphenyl]-3-yl)methyl)-5-azaspiro[2.4]heptan-7-yl)methanesulfonamide] | 1 to 10 nM
11 | C[C@@H](NC(=O)N1CC2(CC2)[C@H](NS(=O)(=O)C(F)F)[C@@H]1Cc1cccc(-c2cc(F)cc(F)c2)c1F)C(F)F [compound 60, (6S,7S)-7-((difluoromethyl)sulfonamido)-N-((R)-1,1-difluoropropan-2-yl)-6-((2,3′,5′-trifluoro-[1,1′-biphenyl]-3-yl)methyl)-5-azaspiro[2.4]heptane-5-carboxamide] | 1 to 10 nM
12 | N#C[C@]1(C(=O)N2CC3(CC3)[C@H](NS(=O)(=O)CF)[C@@H]2Cc2cccc(-c3cc(F)ccc3F)c2F)CCO1 [compound 80, N-((6S,7S)-5-((S)-2-cyanooxetane-2-carbonyl)-6-((2,2′,5′-trifluoro-[1,1′-biphenyl]-3-yl)methyl)-5-azaspiro[2.4]heptan-7-yl)-1-fluoromethanesulfonamide] | 0.0631 to 1 nM
13 | C[C@@](O)(CF)C(=O)N1CC2(CC2)[C@H](NS(=O)(=O)C(F)F)[C@@H]1Cc1cccc(-c2cc(F)cc(F)c2)c1F [compound 1, 1,1-difluoro-N-((6S,7S)-5-((S)-3-fluoro-2-hydroxy-2-methylpropanoyl)-6-((2,3′,5′-trifluoro-[1,1′-biphenyl]-3-yl)methyl)-5-azaspiro[2.4]heptan-7-yl)methanesulfonamide] | 1 to 10 nM
14 | CC(C)(F)CNC(=O)N1CC2(CC2)[C@H](NS(=O)(=O)C(F)F)[C@@H]1Cc1cccc(-c2cccc(F)c2)c1F [compound 71, (6S,7S)-6-((2,3′-difluoro-[1,1′-biphenyl]-3-yl)methyl)-7-((difluoromethyl)sulfonamido)-N-(2-fluoro-2-methylpropyl)-5-azaspiro[2.4]heptane-5-carboxamide] | 0.0631 to 1 nM
15 | O=C([C@H](O)CF)N1CC2(CC2)[C@H](NS(=O)(=O)C(F)F)[C@@H]1Cc1cccc(-c2cc(F)cc(F)c2)c1F [compound 8, 1,1-difluoro-N-((6S,7S)-5-((S)-3-fluoro-2-hydroxypropanoyl)-6-((2,3′,5′-trifluoro-[1,1′-biphenyl]-3-yl)methyl)-5-azaspiro[2.4]heptan-7-yl)methanesulfonamide] | 1 to 10 nM
16 | CO[C@@H](C)C(=O)N1CC2(CC2)[C@H](NS(=O)(=O)C(F)F)[C@@H]1Cc1cccc(-c2cc(F)cc(F)c2)c1F [compound 65, 1,1-difluoro-N-((6S,7S)-5-((S)-2-methoxypropanoyl)-6-((2,3′,5′-trifluoro-[1,1′-biphenyl]-3-yl)methyl)-5-azaspiro[2.4]heptan-7-yl)methanesulfonamide] | 1 to 10 nM
17 | C[C@](O)(CF)C(=O)N1CC2(CC2)[C@H](NS(=O)(=O)C2(F)CC2)[C@@H]1Cc1cccc(-c2ccccc2)c1F [compound 91, 1-fluoro-N-((6S,7S)-5-((R)-3-fluoro-2-hydroxy-2-methylpropanoyl)-6-((2-fluoro-[1,1′-biphenyl]-3-yl)methyl)-5-azaspiro[2.4]heptan-7-yl)cyclopropane-1-sulfonamide] | 0.0631 to 1 nM
18 | N#CC1(C(=O)N2CC3(CC3)[C@H](NS(=O)(=O)CF)[C@@H]2Cc2cccc(-c3ccccc3)c2F)COC1 [compound 34, N-((6S,7S)-5-(3-cyanooxetane-3-carbonyl)-6-((2-fluoro-[1,1′-biphenyl]-3-yl)methyl)-5-azaspiro[2.4]heptan-7-yl)-1-fluoromethanesulfonamide] | 0.0631 to 1 nM
